Measurements: the supplement of paper PMC10307832

Compound: Cc1ccc(Nc2nccc(N(C)c3ccc4c(C)n(C)nc4c3)n2)cc1S(N)(=O)=O [Pazopanib] + O=C(c1cc(Cc2n[nH]c(=O)c3ccccc23)ccc1F)N1CCN(C(=O)C2CC2)CC1 [Olaparib] (partner 8 µM)
Assay: relative viability (nuclei count vs DMSO), 5 days (fraction); higher = more cells survive
Conditions: first compound 0.01 µM
Summary of the method: (§1)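 Lung cancer cell lines in 1536-well plates got either a single drug or a fixed anchor-drug dose together with five library-drug doses (not always all listed) in √10 steps, by pin tool, on the day after seeding. Nuclei were counted after 5 days, and relative viability is the treated-to-vehicle ratio of nuclei counts. Values are medians of duplicate plates.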

First: CAL-12T
Second: NCI-H1651
The relative viability of the first is higher: 0.854 for the first, 0.18 for the second.

Compared with EPLC-272H, NCI-H2228 is lower in relative viability: 0.87 for the first, 0.829 for the second.

Going from NCI-H1355 to NCI-H322M, the relative viability rises from 0.716 to 0.885.

Compared with NCI-H1437, NCI-H1755 is higher in relative viability: 0.644 for the first, 0.798 for the second.

Going from NCI-H2023 to HCC-15, the relative viability rises from 0.441 to 0.689.

First: NCI-H1944
Second: EKVX
The relative viability of the first is lower: 0.425 for the first, 0.766 for the second.

First: LC-2-ad
Second: NCI-H2170
The relative viability of the first is higher: 0.796 for the first, 0.669 for the second.

First: NCI-H1975
Second: SK-LU-1
The relative viability of the first is higher: 0.76 for the first, 0.392 for the second.

Going from ABC-1 to SK-MES-1, the relative viability falls from 1.01 to 0.659.

Going from NCI-H661 to RERF-LC-KJ, the relative viability rises from 0.781 to 0.805.

Same assay, conditions: first compound 0.03162 µM

First: CAL-12T
Second: NCI-H1651
The relative viability of the first is higher: 0.783 for the first, 0.192 for the second.

Compared with EPLC-272H, NCI-H2228 is lower in relative viability: 0.792 for the first, 0.492 for the second.

First: NCI-H1792
Second: NCI-H1355
The relative viability of the first is lower: 0.384 for the first, 0.708 for the second.

Compared with NCI-H322M, NCI-H1437 is lower in relative viability: 0.817 for the first, 0.645 for the second.

First: NCI-H1755
Second: NCI-H2023
The relative viability of the first is higher: 0.837 for the first, 0.487 for the second.

Going from HCC-15 to NCI-H1944, the relative viability falls from 0.671 to 0.353.

Going from PC-3 [JPC-3] to EKVX, the relative viability falls from 1.15 to 1.05.

Going from LC-2-ad to NCI-H2170, the relative viability falls from 0.684 to 0.561.

Going from NCI-H1975 to SK-LU-1, the relative viability falls from 0.829 to 0.483.

Going from ABC-1 to SK-MES-1, the relative viability falls from 1.15 to 0.684.

Compared with NCI-H661, RERF-LC-KJ is higher in relative viability: 0.782 for the first, 0.938 for the second.

Same assay, conditions: first compound 0.1 µM

Going from CAL-12T to NCI-H1651, the relative viability falls from 0.694 to 0.176.

First: EPLC-272H
Second: NCI-H2228
The relative viability of the first is higher: 1.06 for the first, 0.611 for the second.

Going from NCI-H1792 to NCI-H1355, the relative viability rises from 0.435 to 0.76.

Compared with NCI-H322M, NCI-H1437 is lower in relative viability: 0.881 for the first, 0.649 for the second.

Compared with NCI-H1755, NCI-H2023 is lower in relative viability: 0.866 for the first, 0.516 for the second.

Compared with HCC-15, NCI-H1944 is lower in relative viability: 0.697 for the first, 0.424 for the second.

First: PC-3 [JPC-3]
Second: EKVX
The relative viability of the first is higher: 1.18 for the first, 0.863 for the second.

First: LC-2-ad
Second: NCI-H2170
The relative viability of the first is higher: 0.705 for the first, 0.693 for the second.

First: NCI-H1975
Second: SK-LU-1
The relative viability of the first is higher: 0.775 for the first, 0.441 for the second.

Going from ABC-1 to SK-MES-1, the relative viability falls from 0.959 to 0.76.

First: NCI-H661
Second: RERF-LC-KJ
The relative viability of the first is lower: 0.792 for the first, 0.947 for the second.

Same assay, conditions: first compound 0.3162 µM

First: CAL-12T
Second: NCI-H1651
The relative viability of the first is higher: 0.74 for the first, 0.202 for the second.

Going from EPLC-272H to NCI-H2228, the relative viability falls from 0.944 to 0.574.

Compared with NCI-H1792, NCI-H1355 is higher in relative viability: 0.483 for the first, 0.761 for the second.

Going from NCI-H322M to NCI-H1437, the relative viability falls from 0.71 to 0.653.

Going from NCI-H1755 to NCI-H2023, the relative viability falls from 0.882 to 0.466.

Going from HCC-15 to NCI-H1944, the relative viability falls from 0.723 to 0.418.

Compared with PC-3 [JPC-3], EKVX is lower in relative viability: 1.11 for the first, 0.867 for the second.

Going from LC-2-ad to NCI-H2170, the relative viability falls from 0.778 to 0.547.

First: NCI-H1975
Second: SK-LU-1
The relative viability of the first is higher: 0.785 for the first, 0.525 for the second.

Going from ABC-1 to SK-MES-1, the relative viability falls from 0.946 to 0.75.

First: NCI-H661
Second: RERF-LC-KJ
The relative viability of the first is lower: 0.691 for the first, 0.785 for the second.

Same assay, conditions: first compound 1 µM

Compared with CAL-12T, NCI-H1651 is lower in relative viability: 0.707 for the first, 0.188 for the second.

Compared with EPLC-272H, NCI-H2228 is lower in relative viability: 0.845 for the first, 0.48 for the second.

Going from NCI-H1792 to NCI-H1355, the relative viability rises from 0.384 to 0.754.

Going from NCI-H322M to NCI-H1437, the relative viability falls from 0.71 to 0.551.

Going from NCI-H1755 to NCI-H2023, the relative viability falls from 0.944 to 0.45.

Going from HCC-15 to NCI-H1944, the relative viability falls from 0.672 to 0.475.

Compared with PC-3 [JPC-3], EKVX is lower in relative viability: 1.02 for the first, 0.911 for the second.

Compared with LC-2-ad, NCI-H2170 is lower in relative viability: 0.682 for the first, 0.56 for the second.

First: NCI-H1975
Second: SK-LU-1
The relative viability of the first is higher: 0.756 for the first, 0.55 for the second.

Going from ABC-1 to SK-MES-1, the relative viability falls from 0.782 to 0.685.

First: NCI-H661
Second: RERF-LC-KJ
The relative viability of the first is higher: 0.71 for the first, 0.583 for the second.

Compound: Cc1ccc(Nc2nccc(N(C)c3ccc4c(C)n(C)nc4c3)n2)cc1S(N)(=O)=O [Pazopanib] + CC(=O)c1c(C)c2cnc(Nc3ccc(N4CCNCC4)cn3)nc2n(C2CCCC2)c1=O [Palbociclib] (partner 0.5 µM)
Assay: as above
Conditions: first compound 0.01 µM
Summary of the method: as §1

Going from CAL-12T to NCI-H1651, the relative viability rises from 0.487 to 0.51.

Compared with NCI-H2228, NCI-H1355 is lower in relative viability: 0.892 for the first, 0.33 for the second.

Going from NCI-H322M to NCI-H1437, the relative viability falls from 0.495 to 0.327.

Compared with NCI-H1755, NCI-H2023 is lower in relative viability: 0.423 for the first, 0.36 for the second.

Going from HCC-15 to NCI-H1944, the relative viability falls from 0.7 to 0.287.

First: EKVX
Second: LC-2-ad
The relative viability of the first is lower: 0.378 for the first, 0.552 for the second.

Going from NCI-H2170 to NCI-H1975, the relative viability rises from 0.353 to 0.531.

Going from SK-LU-1 to ABC-1, the relative viability rises from 0.393 to 0.407.

Compared with SK-MES-1, NCI-H661 is higher in relative viability: 0.334 for the first, 0.376 for the second.

For RERF-LC-KJ, the relative viability was 1.11.

Same assay, conditions: first compound 0.03162 µM

Compared with CAL-12T, NCI-H1651 is lower in relative viability: 0.687 for the first, 0.555 for the second.

Compared with EPLC-272H, NCI-H2228 is higher in relative viability: 0.366 for the first, 0.75 for the second.

First: NCI-H1792
Second: NCI-H1355
The relative viability of the first is higher: 0.632 for the first, 0.4 for the second.

Compared with NCI-H322M, NCI-H1437 is lower in relative viability: 0.522 for the first, 0.313 for the second.

Compared with NCI-H1755, NCI-H2023 is lower in relative viability: 0.454 for the first, 0.412 for the second.

Compared with HCC-15, NCI-H1944 is lower in relative viability: 0.708 for the first, 0.357 for the second.

Compared with PC-3 [JPC-3], EKVX is lower in relative viability: 0.556 for the first, 0.461 for the second.

First: LC-2-ad
Second: NCI-H2170
The relative viability of the first is higher: 0.459 for the first, 0.387 for the second.

Going from NCI-H1975 to SK-LU-1, the relative viability falls from 0.552 to 0.389.

Compared with ABC-1, SK-MES-1 is lower in relative viability: 0.799 for the first, 0.352 for the second.

Going from NCI-H661 to RERF-LC-KJ, the relative viability rises from 0.386 to 1.03.

Same assay, conditions: first compound 0.1 µM

First: CAL-12T
Second: NCI-H1651
The relative viability of the first is lower: 0.348 for the first, 0.523 for the second.

Compared with EPLC-272H, NCI-H2228 is higher in relative viability: 0.304 for the first, 0.848 for the second.

First: NCI-H1792
Second: NCI-H1355
The relative viability of the first is higher: 0.598 for the first, 0.426 for the second.

First: NCI-H322M
Second: NCI-H1437
The relative viability of the first is higher: 0.478 for the first, 0.284 for the second.

Compared with NCI-H1755, NCI-H2023 is lower in relative viability: 0.47 for the first, 0.456 for the second.

First: HCC-15
Second: NCI-H1944
The relative viability of the first is higher: 0.729 for the first, 0.33 for the second.

Going from PC-3 [JPC-3] to EKVX, the relative viability rises from 0.341 to 0.395.

First: LC-2-ad
Second: NCI-H2170
The relative viability of the first is higher: 0.56 for the first, 0.445 for the second.

First: NCI-H1975
Second: SK-LU-1
The relative viability of the first is higher: 0.608 for the first, 0.411 for the second.

First: ABC-1
Second: SK-MES-1
The relative viability of the first is higher: 0.788 for the first, 0.322 for the second.

Going from NCI-H661 to RERF-LC-KJ, the relative viability rises from 0.427 to 1.07.

Same assay, conditions: first compound 0.3162 µM

Compared with CAL-12T, NCI-H1651 is higher in relative viability: 0.486 for the first, 0.489 for the second.

Compared with EPLC-272H, NCI-H2228 is higher in relative viability: 0.334 for the first, 0.756 for the second.

Compared with NCI-H1792, NCI-H1355 is lower in relative viability: 0.649 for the first, 0.407 for the second.

First: NCI-H322M
Second: NCI-H1437
The relative viability of the first is higher: 0.482 for the first, 0.338 for the second.

Compared with NCI-H1755, NCI-H2023 is lower in relative viability: 0.457 for the first, 0.38 for the second.

Compared with HCC-15, NCI-H1944 is lower in relative viability: 0.752 for the first, 0.332 for the second.

Going from PC-3 [JPC-3] to EKVX, the relative viability falls from 0.522 to 0.368.

Compared with LC-2-ad, NCI-H2170 is lower in relative viability: 0.45 for the first, 0.399 for the second.

Going from NCI-H1975 to SK-LU-1, the relative viability falls from 0.601 to 0.425.

First: ABC-1
Second: SK-MES-1
The relative viability of the first is higher: 1.13 for the first, 0.36 for the second.

Going from NCI-H661 to RERF-LC-KJ, the relative viability rises from 0.422 to 1.09.

Same assay, conditions: first compound 1 µM

First: CAL-12T
Second: NCI-H1651
The relative viability of the first is higher: 0.577 for the first, 0.555 for the second.

Going from EPLC-272H to NCI-H2228, the relative viability rises from 0.409 to 0.779.

Going from NCI-H1792 to NCI-H1355, the relative viability falls from 0.71 to 0.45.

Compared with NCI-H322M, NCI-H1437 is lower in relative viability: 0.55 for the first, 0.313 for the second.

Compared with NCI-H1755, NCI-H2023 is lower in relative viability: 0.467 for the first, 0.434 for the second.

First: HCC-15
Second: NCI-H1944
The relative viability of the first is higher: 0.788 for the first, 0.41 for the second.

Compared with PC-3 [JPC-3], EKVX is lower in relative viability: 0.519 for the first, 0.423 for the second.

Going from LC-2-ad to NCI-H2170, the relative viability falls from 0.487 to 0.393.

Going from NCI-H1975 to SK-LU-1, the relative viability falls from 0.557 to 0.455.

First: ABC-1
Second: SK-MES-1
The relative viability of the first is higher: 0.784 for the first, 0.304 for the second.

Compared with NCI-H661, RERF-LC-KJ is higher in relative viability: 0.396 for the first, 1.04 for the second.
